# Laboratory results published in doi:10.1101/2025.04.10.648262, “Time-resolved phenotyping at subcellular resolution reveals shared principles and key trade-offs across antimicrobial peptide activities” (bioRxiv, 2026).
# Read-outs that look alike come from different tables or passages of the source. Bridge positions count the residues as written; N and C are the ends. Square brackets hold non-standard residues; d marks the D form. Peptide text beside a SMILES is read from it. Nspe = C[C@H](NCC(=O)O)c1ccccc1; Nlys = NCCCCNCC(=O)O
# How the values were obtained:
# [1] = system: CJW7753 cells in wide trenches; assay: Wide-trench microfluidics, growth inhibition of dense populations; type: cell-based, Escherichia coli; settings: 2X MIC in feeding channel, 37°C, M9gluCAAT with 0.08% Pluronic
# Excerpt: The design of the wide-trench microfluidics was adapted from the one reported by ([Lambert & Kussell, 2014]). As reported before ([Lin & Jacobs-Wagner, 2022]), the master mold was manufactured in the clean room of the School of Engineering and Applied Science at Yale University. UV photolithography (EVG 620 Mask Aligner) was applied on Si wafers with SU-8 photoresist to generate two layers of positive patterns. The lower layer contained the bacterial culture chambers (wide trenches) while the upper layer contained the large trench for the flowing culture medium. The large feeding region features a ~200 μm width and ~30 μm height. The wide trenches have a width of 7 μm, a depth of ~34–38 μm, and a height of 1.29 μm.
# A solution of 9:1 polydimethylsiloxane (PDMS) and curing agent was mixed, degassed to remove air bubbles, poured onto the silicon wafer, and cured at 64.5°C for > 3 h. Note that the 9:1 PDMS:curing agent ratio was used instead of the standard 10:1 to reduce the hydrophobicity of the PDMS and mitigate hydrophobic interactions with AMPs. Once hardened, PDMS chips were cut out from the wafer, and a 1.2 mm biopsy punch was used to create inlet and outlet holes. The current chip design features two independent channels per chip. To allow for a higher temperature during PDMS-glass bonding, the glass bottom part of the dish was used during the following steps (without the plastic support glued to it). […]
# To analyse wide-trench time-lapse images, drift correction was first performed using OmniSegger, followed by a custom Python script (drift_correction_wide_trenches.py) to correct for the slow residual drift that remained after the first correction step. The resulting drift-corrected timelapse data were analysed with the OmniSegger pipeline using the ribosome-fluorescence wide-trench Omnipose model described above, allowing cell segmentation and cell linking to be performed in the same general manner as for the PDMS-microwell experiments. […]
# E. coli (MG1655) = type: cell-based, Escherichia coli
# Protocol: For all experiments and E. coli strains, cells were grown in a medium (M9gluCAAT) with M9 salts (33.7 mM Na2HPO4, 22mM KH2PO4, 8.55 mM NaCl, 9.35 mM NH4Cl), 0.2% (w/v) glucose, 0.4% (w/v) casamino acids, 1 mM MgSO4, 0.3 mM CaCl2, 1 μg/mL thiamine, and trace elements (13.4 mM ethylene-diamine-tetra-acetic-acid (EDTA), 3.1 mM FeCl3-6H2O, 0.62 mM ZnCl2, 76 μM CuCl2-2H2O, 42 μM CoCl2-2H2O, 162 μM H3BO3, 8.1 μM MnCl2-4H2O). Prior to every experiment, cells were first inoculated into M9gluCAAT and grown to stationary phase at 37°C. For all assays except the biofilm experiments, the culture was diluted to 1/10,000 or more in fresh medium and grown at 37°C until it reached an optical density at 600 nm (OD) of 0.2–0.4. For the biofilm experiments, cells were grown in M9gluCAAT supplemented with 100 μg/mL ampicillin to maintain the GFP-expressing plasmid. The overnight stationary-phase cultures were then diluted into the same medium to an OD of 0.015. See below for details on biofilm growth.
# Except for the biofilm experiments, the strains used in this study were derived from MG1655 (ATCC 47076), which was used to estimate the minimum inhibitory concentration (MIC) for all the studied peptides (or peptoids) using a microplate reader (Figure 1A). To detect the timing of outer and inner membrane permeabilization to proteins, strain CJW7845 was constructed to carry two freely diffusing fluorescent proteins: mScarlet-I in the periplasm and mTagBFP2 in the cytoplasm. Construction of CJW7845 was done by transforming pBAD-mTagBFP2 plasmid (Addgene #34632, a gift from Vladislav Verkhusha; ([Subach et al., 2011])) into an E. coli strain expressing a periplasmic mScarlet-I reporter ([Cañas-Duarte 2021]), as previously described ([Chung et al., 1989]). Transformants were restreaked on fresh selection plates and confirmed via microscopy.
# To determine the minimal inhibitory concentration (MIC) of the selected AMPs against either MG1655 or ATCC 25922 E. coli strains, exponentially growing cells were diluted in fresh medium to an OD = 10^−6 (~500 cells/mL) and mixed 50:50 with titrated AMP concentrations (which were chosen to be over a range that included the MIC) in a 96-well plate (flat bottom with low evaporation lid, 3595, Corning, Arizona, USA). A final OD of 5 × 10^−7 corresponds to ~250 cells/mL. OD curves were sampled every 5 min for a total of 48 h using a microplate reader (BioTek Synergy 2, Agilent Technologies Inc., California, USA). Raw data were exported as a text file and analysed using a custom-written Python script (microplate_reader_analysis.py). To measure maximum growth rates, the log(OD) was fitted using a linear regression over a 12-point moving window (60 min), which provides the instantaneous growth rate (log(OD)/h), from which the global maximum was computed. The MIC was defined as the minimum AMP concentration for which the maximum growth rate was < 0.2 log(OD)/h within the first 20 h of incubation. Each MIC experiment was performed independently at least three times (with at least two technical replicates each), and the mode across all replicates was taken as the final MIC; in the rare cases of a tie, an additional replicate was performed, which was sufficient to resolve it.
SMILES,Growth inhibition of dense cell population in wide trenches [1],"MIC (mode MIC) (E. coli (MG1655); MG1655, 20 h) [µM]","MIC (mode MIC) (E. coli (MG1655); E. coli MG1655, M9gluCAAT, 37°C, 20 h, inoculum ~250 cells/mL, max growth rate < 0.2 log(OD)/h, mode across three biological replicates with two technical replicates each) [µM]"
"CC[C@H](C)[C@@H]1NC(=O)CNC(=O)[C@H](CCCNC(=N)N)NC(=O)[C@H](Cc2ccc(O)cc2)NC(=O)[C@@H]2CSSC[C@H](NC1=O)C(=O)N[C@@H](Cc1ccc(O)cc1)C(=O)N[C@@H](CCCNC(=N)N)C(=O)N[C@@H](CCCNC(=N)N)C(=O)N[C@H](C(=O)N[C@@H](CCCNC(=N)N)C(N)=O)CSSC[C@H](NC(=O)[C@H](Cc1c[nH]c3ccccc13)NC(=O)[C@@H](N)CCCCN)C(=O)N[C@@H](Cc1ccccc1)C(=O)N[C@@H](CCCNC(=N)N)C(=O)N[C@@H](C(C)C)C(=O)N2 [Tac1, tachyplesin-1] (H-KWCFRVCYRGICYRRCR-NH2; disulfide 3-16, 7-12 (inferred); N-terminus assumed)",primarily inhibited the growth of cells near the top of the trenches,0.6,–
C[C@@H](c1ccccc1)N(CC(N)=O)C(=O)CN(C(=O)CN(CCCCN)C(=O)CN(C(=O)CN(C(=O)CN(CCCCN)C(=O)CN(C(=O)CN(C(=O)CN(CCCCN)C(=O)CN(C(=O)CN(C(=O)CNCCCCN)[C@@H](C)c1ccccc1)[C@@H](C)c1ccccc1)[C@@H](C)c1ccccc1)[C@@H](C)c1ccccc1)[C@@H](C)c1ccccc1)[C@@H](C)c1ccccc1)[C@@H](C)c1ccccc1 [TM1] (H-[Nlys][Nspe][Nspe][Nlys][Nspe][Nspe][Nlys][Nspe][Nspe][Nlys][Nspe][Nspe]-NH2),localized growth inhibition,–,2.5
CC[C@@H](C)[C@@H](NC(=O)[C@@H](C)NC(=O)[C@@H](CCCNC(=N)N)NC(=O)[C@@H](Cc1c[nH]c2ccccc12)NC(=O)[C@@H](CCC(N)=O)NC(=O)[C@H](N)C(C)C)C(=O)N[C@H](CCCNC(=N)N)C(=O)N[C@@H](C(=O)N[C@H](CCCNC(=N)N)C(=O)N[C@@H](C(=O)N[C@@H](C(=O)N[C@H](CCCNC(=N)N)C(N)=O)[C@H](C)CC)C(C)C)C(C)C [DJK-5] (H-[dV][dQ][dW][dR][dA][dI][dR][dV][dR][dV][dI][dR]-NH2; N-terminus and C-terminus assumed),able to inhibit cell growth throughout the entire wide trenches,2.5,–
